From PubChem BioAssay AID250 (DTP/NCI, 2004) come the findings set out here.

Structures are written as SMILES. Toxic doses and inconclusive results are not listed.

This test concerns BDF1 mice, L1210 leukemia sc, survival T/C. Description: NCI In Vivo Anticancer Drug Screen. Data for tumor model L1210 Leukemia (subcutaneous) in B6D2F1 (BDF1) mice. The note with it: endpoint: median survival time, schedule: Q01DX Z (sc), vehicle: methylcellulose (MC), higher = longer survival. The method, boiled down:
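Antitumor activity is assessed in mice with transplanted tumors by comparing the treated group (T) with the vehicle control group (C).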

On to `COc1ccc2nc3cc(Cl)ccc3c(NCCN(CCCl)CCCl)c2c1`, for which the T/C is, setting by setting: (dose: 0.65 mg/kg/injection) 105 % of control; (dose: 39.0 mg/kg/injection) 100 % of control.
